Laboratory results from patent US12208088B2 (Genentech, Inc., priority 2018, dated 2025).

Target: HPK1 (Homo sapiens (Human), UniProt Q92918)
Assay: HPK1 Lantha binding assay ("Lanth")
Details: binding assays; Morrison Ki fit
Outline: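 Ki values are from Morrison-equation fitting of 665/615 nm TR-FRET signals, taking enzyme level, tracer level and tracer Kd into account. The assay mix held HPK1 (2 nM), Eu-anti-GST antibody (2 nM) and Tracer222 (15 nM). Incubations were two 1 h steps at 23 °C, on 5-fold serial compound dilutions.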

Sequence of HPK1 (Q92918 1-346 limits assumed): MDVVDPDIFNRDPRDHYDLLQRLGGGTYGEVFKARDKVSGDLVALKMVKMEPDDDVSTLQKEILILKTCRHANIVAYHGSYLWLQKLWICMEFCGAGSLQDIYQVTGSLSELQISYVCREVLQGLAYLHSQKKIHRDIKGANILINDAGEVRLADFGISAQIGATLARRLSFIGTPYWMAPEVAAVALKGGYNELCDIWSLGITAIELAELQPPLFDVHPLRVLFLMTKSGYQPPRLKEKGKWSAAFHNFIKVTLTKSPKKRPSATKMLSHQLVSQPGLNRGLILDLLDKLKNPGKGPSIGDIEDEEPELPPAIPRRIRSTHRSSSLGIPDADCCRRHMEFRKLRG

Compound | Ki [nM]
CC(=O)Nc1ccc(-c2cnc3c(c2)C2(CC2)CN3)cc1C(F)(F)F [Compound 64, N-(4-(1′,2′-Dihydrospiro[cyclopropane-1,3′-pyrrolo[2,3-b]pyridin]-5′-yl)-2-(trifluoromethyl)phenyl)acetamide] | 89.1
NS(=O)(=O)c1ccc(-c2cnc3c(c2)C2(CC2)CN3)cc1 [Compound 65, 4-(1′,2′-Dihydrospiro[cyclopropane-1,3′-pyrrolo[2,3-b]pyridin]-5′-yl)benzenesulfonamide] | 135
Cn1cccc(-c2cccc(-c3cnc4c(c3Cl)[C@]3(CC[C@H](O)C3)CN4)c2)c1=O [Compound 68c, 3-(3-((1R,3S)-4′-chloro-3-hydroxy-1′,2′-dihydrospiro[cyclopentane-1,3′-pyrrolo[2,3-b]pyridin]-5′-yl)phenyl)-1-methylpyridin-2(1H)-one] | 5.4
C[C@H]1CNC(=O)N1c1cccc(-c2cnc3c(c2Cl)C2(CC2)CN3)c1 [Compound 69b, (S)-1-(3-(4′-Chloro-1′,2′-dihydrospiro[cyclopropane-1,3′-pyrrolo[2,3-b]pyridin]-5′-yl)phenyl)-5-methylimidazolidin-2-one] | 16
c1cc(-c2cnc3c(c2)C2(CC2)CN3)cc(-c2nnn3c2CNCC3)c1 [Compound 72, 5′-(3-(4,5,6,7-Tetrahydro-[1,2,3]triazolo[1,5-a]pyrazin-3-yl)phenyl)-1′,2′-dihydrospiro[cyclopropane-1,3′-pyrrolo[2,3-b]pyridine]] | 279
O=C1NCCC1c1cccc(-c2cnc3c(c2Cl)C2(CC2)CN3)c1 (stereo not drawn) [Compound 73] | 26.1
N#Cc1cc2c(-c3cnc4c(c3)C3(CC3)CN4)c[nH]c2cc1F [Compound 74] | 31
CN(C)C(=O)c1c(N)ccc(-c2cnc3c(c2Cl)C2(CCC(N(C)CC(N)=O)C2)CN3)c1F (stereo not drawn) [Compound 75, 6-Amino-3-(3-((2-amino-2-oxoethyl)(methyl)amino)-4′-chloro-1′,2′-dihydrospiro[cyclopentane-1,3′-pyrrolo[2,3-b]pyridin]-5′-yl)-2-fluoro-N,N-dimethylbenzamide] | 251
CN(C)C(=O)c1c(N)ccc(-c2cnc3c(c2)[C@]2(CN3)C[C@H](O)C2)c1F [Compound 77a, 6-Amino-2-fluoro-3-((1r,3r)-3-hydroxy-1′,2′-dihydrospiro[cyclobutane-1,3′-pyrrolo[2,3-b]pyridin]-5′-yl)-N,N-dimethylbenzamide] | 160
CN(C)C(=O)c1c(N)ccc(-c2cnc3c(c2)[C@]2(CN3)C[C@@H](O)C2)c1F [Compound 77b, 6-Amino-2-fluoro-3-((1s,3s)-3-hydroxy-1′,2′-dihydrospiro[cyclobutane-1,3′-pyrrolo[2,3-b]pyridin]-5′-yl)-N,N-dimethylbenzamide] | 217
CN(C)C(=O)c1c(N)ccc(-c2cnc3c(c2)[C@]2(CN3)C[C@](C)(O)C2)c1F [Compound 78a, 6-Amino-2-fluoro-3-((1r,3r)-3-hydroxy-3-methyl-1′,2′-dihydrospiro[cyclobutane-1,3′-pyrrolo[2,3-b]pyridin]-5′-yl)-N,N-dimethylbenzamide] | 927
CN(C)C(=O)c1c(N)ccc(-c2cnc3c(c2)[C@]2(CN3)C[C@@](C)(O)C2)c1F [Compound 78b, 6-Amino-2-fluoro-3-((1s,3s)-3-hydroxy-3-methyl-1′,2′-dihydrospiro[cyclobutane-1,3′-pyrrolo[2,3-b]pyridin]-5′-yl)-N,N-dimethylbenzamide] | 165
CO[C@H]1C[C@]2(CNc3ncc(-c4ccc(N)c(C(=O)N(C)C)c4F)c(Cl)c32)C1 [Compound 80a, 6-Amino-3-((1r,3r)-4′-chloro-3-methoxy-1′,2′-dihydrospiro[cyclobutane-1,3′-pyrrolo[2,3-b]pyridin]-5′-yl)-2-fluoro-N,N-dimethylbenzamide] | 97.6
CO[C@H]1C[C@@]2(CNc3ncc(-c4ccc(N)c(C(=O)N(C)C)c4F)c(Cl)c32)C1 [Compound 80b, 6-Amino-3-((1s,3s)-4′-chloro-3-methoxy-1′,2′-dihydrospiro[cyclobutane-1,3′-pyrrolo[2,3-b]pyridin]-5′-yl)-2-fluoro-N,N-dimethylbenzamide] | 129

Continued by falling Ki, values first:

Ki [nM] | Compound
659 | CN(C)C(=O)c1c(N)ccc(-c2cnc3c(c2)C2(CNC(=O)C2)CN3)c1F (stereo not drawn) [Compound 79, 6-Amino-2-fluoro-N,N-dimethyl-3-(5-oxo-1′,2′-dihydrospiro[pyrrolidine-3,3′-pyrrolo[2,3-b]pyridin]-5′-yl)benzamide]
490 | CN(C)C(=O)c1c(N)ccc(-c2cnc3c(c2Cl)C2(CCC(NCC(N)=O)C2)CN3)c1F (stereo not drawn) [Compound 76, 6-Amino-3-(3-((2-amino-2-oxoethyl)amino)-4′-chloro-1′,2′-dihydrospiro[cyclopentane-1,3′-pyrrolo[2,3-b]pyridin]-5′-yl)-2-fluoro-N,N-dimethylbenzamide]
208 | CC(=O)NC1CCC2(CNc3ncc(-c4ccc(N)c(C(=O)N(C)C)c4F)c(Cl)c32)C1 (stereo not drawn) [Compound 83, 3-(3-Acetamido-4′-chloro-1′,2′-dihydrospiro[cyclopentane-1,3′-pyrrolo[2,3-b]pyridin]-5′-yl)-6-amino-2-fluoro-N,N-dimethylbenzamide]
115 | O=C1NCCN1c1cccc(-c2cnc3c(c2)C2(CC2)CN3)n1 [Compound 71, 1-(6-(1′,2′-Dihydrospiro[cyclopropane-1,3′-pyrrolo[2,3-b]pyridin]-5′-yl)pyridin-2-yl)imidazolidin-2-one]
102 | O=C1NCCCN1c1cccc(-c2cnc3c(c2)C2(CC2)CN3)n1 [Compound 70, 1-(6-(1′,2′-Dihydrospiro[cyclopropane-1,3′-pyrrolo[2,3-b]pyridin]-5′-yl)pyridin-2-yl)tetrahydropyrimidin-2(1H)-one]
84.9 | CS(=O)(=O)c1cccc(-c2cnc3c(c2)C2(CC2)CN3)c1 [Compound 63, 5′-(3-(Methylsulfonyl)phenyl)-1′,2′-dihydrospiro[cyclopropane-1,3′-pyrrolo[2,3-b]pyridine]]
53.1 | CN(C)C(=O)c1c(N)ccc(-c2cnc3c(c2)C2(CCC2)CN3)c1F [Compound 66, 6-Amino-3-(1′,2′-dihydrospiro[cyclobutane-1,3′-pyrrolo[2,3-b]pyridin]-5′-yl)-2-fluoro-N,N-dimethylbenzamide]
48.1 | CN(C)C(=O)c1c(N)ccc(-c2cnc3c(c2Cl)[C@]2(CC[C@H](n4cncn4)C2)CN3)c1F [Compound 85a, 6-Amino-3-((1R,3S)-4′-chloro-3-(1H-1,2,4-triazol-1-yl)-1′,2′-dihydrospiro[cyclopentane-1,3′-pyrrolo[2,3-b]pyridin]-5′-yl)-2-fluoro-N,N-dimethylbenzamide]
35.6 | C[C@@H]1CNC(=O)N1c1cccc(-c2cnc3c(c2Cl)C2(CC2)CN3)c1 [Compound 69a, (R)-1-(3-(4′-Chloro-1′,2′-dihydrospiro[cyclopropane-1,3′-pyrrolo[2,3-b]pyridin]-5′-yl)phenyl)-5-methylimidazolidin-2-one]
27.5 | O=C1NCCCN1c1cccc(-c2cnc3c(c2)C2(CC2)CN3)c1 [Compound 67, 1-(3-(1′,2′-Dihydrospiro[cyclopropane-1,3′-pyrrolo[2,3-b]pyridin]-5′-yl)phenyl)tetrahydropyrimidin-2(1H)-one]
